Patent US20110217309A1, “BIOLOGICAL MARKERS PREDICTIVE OF ANTI-CANCER RESPONSE TO INSULIN-LIKE GROWTH FACTOR-1 RECEPTOR KINASE INHIBITORS” (priority 2010, published 2011)

Key:
[1] = test system: OVCAR-4, SKOV-3, OVCAR-3, OVCAR-8, CaOV3-5, and IGROV-1; test: Cell Titer Glo proliferation assay, K-RAS wild-type OvCa lines; assay type: cell-based, human; conditions: other six OvCa cell lines of the panel, WT KRAS, 72 hours
Source text: KRAS mutation status, as reported by the Sanger Wellcome Trust, is noted. Results shown are typical of three or more independent experiments. Grey symbols indicate data for K-RAS mutant (mt) cell lines OVCAR-5 and MDAH2774. Black symbols indicate data for K-RAS wild-type (wt) cell lines OVCAR-4, SKOV-3, OVCAR-3, OVCAR-8, CaOV3-5, and IGROV-1. Cell Lines and Culture. Human cancer cell lines, were obtained from American Type Culture Collection (ATCC, Manassas, Va.), or the following additional indicated sources, and cultured in media as described. […] The basis of the assay is a luminescent quantitation of ATP present in a cell culture plate well. […] The assay utilizes a substrate that binds ATP to produce a luminescent signal, which can be read on a luminometer. […] Results were calculated as a fraction of the DMSO controlled cells.

BxPC3 = test: Cell Titer Glo proliferation assay; assay type: cell-based; conditions: Homo sapiens, BXPC-3, read-out: EC50 in culture in vitro
Source text: (§1) Cell Lines and Culture. Human cancer cell lines, were obtained from American Type Culture Collection (ATCC, Manassas, Va.), or the following additional indicated sources, and cultured in media as described. Tumor types are also indicated: H295R (adrenocortical carcinoma; ATCC), NCI-[…], NCI-[…], SW1573 (NSCLC; ATCC), […], BxPC3 (pancreatic; ATCC), OVCAR5 (ovarian; NCI), MDAH-2774 (ovarian; ATCC), Igrov1 (ovarian; NCI), GEO (colon; Roswell Park Cancer Institute (RPCC)), HT-29 (colon; ATCC), RKO (colon; ATCC), […], 8226 (myeloma; ATCC), H929 (myeloma; ATCC), U266 (myeloma; ATCC), SKES1 (Ewings sarcoma; ATCC), RDES (Ewings sarcoma; ATCC), RD (rhabdomyosarcoma; ATCC), DU4475 (breast; ATCC), SKNAS (neuroblastoma; ATCC), 2650 (nasal SCC; ATCC), OVCAR4 (ovarian; NCI), A673 (Ewings sarcoma; ATCC), BT474 (breast; ATCC), 1386 (oral SCC; MSKCC, NY), 1186 (SCCHN; MSKCC, NY), Colo205 (colon; ATCC), HCT-15 (colon; ATCC), Fadu (oral SCC; ATCC), SKBR3 (breast; ATCC), 1483 (HNSCC; MSKCC, NY), HSC-2 (HNSCC; RIKEN BioResource Center, Tsukuba, Ibaraki, 305-0074, Japan), SKOV-3 (ovarian; ATCC), OVCAR-3 (ovarian; NCI), OVCAR-8 (ovarian; NCI), CaOV3 (ovarian; ATCC). […] The cells were routinely screened for the presence of mycoplasma (MycoAlert, Cambrex Bio Science, Baltimore, Md.). For growth inhibition assays, cells were plated and allowed to proliferate for 24 hours. […] Cell viability was assayed using the Cell Titer-Glo reagent (Promega Corp., Madison, Wis.). Proliferation Assay. […] The basis of the assay is a luminescent quantitation of ATP present in a cell culture plate well. In essence, the greater the number of viable cells in the well, the greater the level of ATP present. The assay utilizes a substrate that binds ATP to produce a luminescent signal, which can be read on a luminometer. Unless otherwise noted, the manufacturer's instructions were followed exactly. Briefly, on Day 1, cells were plated in 120 μl of 10% serum-containing growth media at a density of 4000 cells/well in a white polystyrene 96 well assay plate. […] After 72 h incubation with the inhibitor, the cells were assayed. Results were calculated as a fraction of the DMSO controlled cells.

Colo205 = test: Cell Titer Glo proliferation assay; assay type: cell-based; conditions: Homo sapiens, COLO 205, read-out: EC50 in culture in vitro
Source text: as §1

FaDu = test: Cell Titer Glo proliferation assay; assay type: cell-based; conditions: Homo sapiens, read-out: EC50 in culture in vitro
Source text: as §1

H295R = test: Cell Titer Glo proliferation assay; assay type: cell-based; conditions: Homo sapiens, NCI-H295R; read-out: EC50 in culture in vitro
Source text: as §1

H460 = test: Cell Titer Glo proliferation assay; assay type: cell-based; conditions: Homo sapiens, NCI-H460; read-out: EC50 in culture in vitro
Source text: as §1

[2] = test system: broad panel (n=116) of additional RTKs and other protein kinases; conditions: at 1 μM; cited from earlier work

- EC50 (BxPC3): < 1 µM
- EC50 (Colo205): < 1 µM
- EC50 (H295R): < 1 µM
- EC50 (H460): > 10 µM
Compound: C[C@]1(O)C[C@@H](c2nc(-c3ccc4ccc(-c5ccccc5)nc4c3)c3c(N)nccn32)C1 [OSI-906, cis-3-[8-amino-1-(2-phenyl-quinolin-7-yl)-imidazo[1,5-a]pyrazin-3-yl]-1-methyl-cyclobutanol]
- sensitivity of proliferation [1]: relatively insensitive
- EC50 (FaDu): > 10 µM
- inhibition of additional kinases [2]: < 50%
